Counter-ions that a name gives are not always drawn.
Assays:
[1] = tested on: bacterial strains that express the class D cephalosporinase OXA-15; experiment: Synergy MIC / standard BLI potentiation MIC assay, strains expressing OXA-15;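 note: more active means a lower MIC or sMIC than Avibactam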; type: cell-based, E. coli; conditions: in the presence of a β-lactam; comparator Avibactam (CCC)
Description: (§1) Unless otherwise indicated, the activity of the BLI compounds can be described by the MIC value obtained from a Synergy MIC assay or a BLI potentiation assay (e.g as described herein), both of which are run in the presence of a β-lactam.
(§2) The experimental protocol was performed according to Clinical and Laboratory Standards Institute (CLSI) guidelines with modifications as described below (CLSI guidelines can be derived from the CLSI document M07-A9 published in January 2012: “Methods for Dilution Antimicrobial Susceptibility Tests for Bacteria That Grow Aerobically; Approved Standard-Ninth Edition”).
(§3) To prepare for MIC testing, frozen glycerol stocks of clinical isolates (Klebsiella pneumoniae, Eschericia coli, Enterobacter spp, Citrobacter spp, or Pseudomonas aeruginosa) were used to streak for isolated colonies on rich, non-selective, tryptic soy agar containing 5% sheep's blood (TSAB). Frozen glycerol stocks of laboratory engineered, isogenic E. coli strains, which contain cloned β-lactamase expressing plasmids were used to streak for isolated colonies on rich, selective LB agar supplemented with 25 μg/mL tetracycline to maintain the plasmid. All strains were incubated at 37° C. for 18-24 hrs.
(§4) On the day of testing, primary cultures were started by scraping off 5-10 colonies from the TSAB plates containing clinical strains or the tetracycline supplemented LB plates containing engineered strains. The clinical strain material was suspended in ˜5 mL of cation adjusted Mueller Hinton Broth (CAMHB) in 14 mL culture tubes. The engineered strain material was suspended in CAMHB (supplemented with 25 μg/mL tetracycline) in 14 mL culture tubes. All strains were incubated at 37° C. with aeration (200 rpm) for ˜2 hrs until the optical density at 600 nm (OD600) was ≧0.1.
(§5) The two compound components of the assay were each diluted in CAMHB and added to the 96-well broth microdilution assay plates. 50 μL of the β-lactam was added to each well of the assay plate in 2-fold dilutions with final concentrations ranging from 128 to 0.13 μg/mL. 25 μL of the BLI compound was added to all wells in the broth microdilution plates at a final concentration of 4 μg/mL. Inoculum cultures were prepared by standardizing the primary cultures to OD600=0.1 and then adding 20 μL of the adjusted primary culture per 1 mL CAMHB for clinical strains or CAMHB (supplemented with tetracycline at 100 μg/mL) for engineered strains, so that the final inoculum density was ˜10^5 colony forming units per milliliter. Diluted inoculum cultures were used to inoculate 25 μl, per well in 96-well broth microdilution assay plates. The final volume of each well was 100 μL and contained a β-lactam at different concentrations, a BLIcompound at 4 μg/mL concentration, the bacterial culture at an OD600 of approximately 0.001 and when necessary tetracycline at 25 μg/mL.
(§6) Plates were incubated for 18-20 hours at 37° C. with aeration (200 rpm). Following incubation, growth was confirmed visually placing plates over a viewing apparatus (stand with a mirror underneath) and then OD600 was measured using a SpectraMax 340PC384 plate reader (Molecular Devices, Sunnyvale, Calif.). Growth was defined as turbidity that could be detected with the naked eye or achieving minimum OD600 of 0.1. MIC values were defined as the lowest concentration producing no visible turbidity.
(§7) The synergy MIC (sMIC) assay determines the concentration of the BLI required to potentiate the activity of a fixed concentration of a β-lactam antibiotic against β-lactamase producing bacterial strains. The experimental protocol was performed according to Clinical and Laboratory Standards Institute (CLSI) guidelines with modifications as described below (CLSI guidelines can be derived from the CLSI document M07-A9 published in January 2012: “Methods for Dilution Antimicrobial Susceptibility Tests for Bacteria That Grow Aerobically; Approved Standard-Ninth Edition”). […]

[2] = tested on: bacterial strains that express KPC β-lactamases; experiment: Synergy MIC / standard BLI potentiation MIC assay, strains expressing KPC β-lactamases; type: cell-based; conditions: for at least one KPC strain and/or a better spectrum of activity against KPC strains than Avibactam; in the presence of a β-lactam
Description: as §1, §2, §3, §4, §5, §6, §7

Row | SMILES | activity against bacterial strains that express OXA-15 β-lactamase compared with Avibactam [1] | activity against bacterial strains that express KPC β-lactamase compared with Avibactam [2]
1 | O=C1N2C[C@@H](CC[C@H]2c2nnc(C3CCNCC3)o2)N1OS(=O)(=O)O [Compound 711, (2S,5R)-7-oxo-2-(5-(piperidin-4-yl)-1,3,4-oxadiazol-2-yl)-1,6-diazabicyclo[3.2.1]octan-6-yl hydrogen sulfate] | more active than Avibactam | more active than Avibactam
2 | NCCCc1nnc([C@@H]2CC[C@@H]3CN2C(=O)N3OS(=O)(=O)O)o1 [Compound 720, (2S,5R)-2-(5-(3-aminopropyl)-1,3,4-oxadiazol-2-yl)-7-oxo-1,6-diazabicyclo[3.2.1]octan-6-yl hydrogen sulfate] | more active than Avibactam | more active than Avibactam
3 | N=C(N)NCc1nnc([C@@H]2CC[C@@H]3CN2C(=O)N3OS(=O)(=O)O)s1 [Compound 721, (2S,5R)-2-(5-(guanidinomethyl)-1,3,4-thiadiazol-2-yl)-7-oxo-1,6-diazabicyclo[3.2.1]octan-6-yl hydrogen sulfate] | more active than Avibactam | more active than Avibactam
4 | CNCCc1nnc([C@@H]2CC[C@@H]3CN2C(=O)N3OS(=O)(=O)O)o1 [Compound 722, (2S,5R)-2-(5-(2-(methylamino)ethyl)-1,3,4-oxadiazol-2-yl)-7-oxo-1,6-diazabicyclo[3.2.1]octan-6-yl hydrogen sulfate] | more active than Avibactam | more active than Avibactam
5 | N=C(N)NCC1(c2nnc([C@@H]3CC[C@@H]4CN3C(=O)N4OS(=O)(=O)O)o2)CC1 [Compound 723, (2S,5R)-2-(5-(1-(guanidinomethyl)cyclopropyl)-1,3,4-oxadiazol-2-yl)-7-oxo-1,6-diazabicyclo[3.2.1]octan-6-yl hydrogen sulfate] | more active than Avibactam | more active than Avibactam
6 | NC1(Cc2nnc([C@@H]3CC[C@@H]4CN3C(=O)N4OS(=O)(=O)O)o2)CC1 [Compound 724, (2S,5R)-2-(5-((1-aminocyclopropyl)methyl)-1,3,4-oxadiazol-2-yl)-7-oxo-1,6-diazabicyclo[3.2.1]octan-6-yl hydrogen sulfate] | more active than Avibactam | more active than Avibactam
7 | O=C1N2C[C@@H](CC[C@H]2c2nnc(CNC3CNC3)o2)N1OS(=O)(=O)O [Compound 726, (2S,5R)-2-(5-((azetidin-3-ylamino)methyl)-1,3,4-oxadiazol-2-yl)-7-oxo-1,6-diazabicyclo[3.2.1]octan-6-yl hydrogen sulfate] | more active than Avibactam | more active than Avibactam
8 | N[C@H]1C[C@H](c2nnc([C@@H]3CC[C@@H]4CN3C(=O)N4OS(=O)(=O)O)o2)C1 [Compound 727, (2S,5R)-2-(5-((1r,3S)-3-aminocyclobutyl)-1,3,4-oxadiazol-2-yl)-7-oxo-1,6-diazabicyclo[3.2.1]octan-6-yl hydrogen sulfate] | more active than Avibactam | more active than Avibactam
9 | N[C@H]1C[C@@H](Cc2nnc([C@@H]3CC[C@@H]4CN3C(=O)N4OS(=O)(=O)O)o2)C1 [Compound 728, (2S,5R)-2-(5-(((1s,3R)-3-aminocyclobutyl)methyl)-1,3,4-oxadiazol-2-yl)-7-oxo-1,6-diazabicyclo[3.2.1]octan-6-yl hydrogen sulfate] | more active than Avibactam | more active than Avibactam
10 | N[C@@H]1CC[C@H](c2nnc([C@@H]3CC[C@@H]4CN3C(=O)N4OS(=O)(=O)O)o2)C1 [Compound 729, (2S,5R)-2-(5-((1S,3R)-3-aminocyclopentyl)-1,3,4-oxadiazol-2-yl)-7-oxo-1,6-diazabicyclo[3.2.1]octan-6-yl hydrogen sulfate] | more active than Avibactam | more active than Avibactam
11 | N=C(N)NCC(O)Cc1nnc([C@@H]2CC[C@@H]3CN2C(=O)N3OS(=O)(=O)O)o1 (stereo partly drawn) [Compound 730, (2S,5R)-2-(5-(3-guanidino-2-hydroxypropyl)-1,3,4-oxadiazol-2-yl)-7-oxo-1,6-diazabicyclo[3.2.1]octan-6-yl hydrogen sulfate] | more active than Avibactam | more active than Avibactam
12 | N=C(N)NC[C@@H](O)c1nnc([C@@H]2CC[C@@H]3CN2C(=O)N3OS(=O)(=O)O)o1 [Compound 731, (2S,5R)-2-(5-((R)-2-guanidino-1-hydroxyethyl)-1,3,4-oxadiazol-2-yl)-7-oxo-1,6-diazabicyclo[3.2.1]octan-6-yl hydrogen sulfate] | more active than Avibactam | more active than Avibactam
13 | N=C(N)NC[C@H](O)c1nnc([C@@H]2CC[C@@H]3CN2C(=O)N3OS(=O)(=O)O)o1 [Compound 732, (2S,5R)-2-(5-((S)-2-guanidino-1-hydroxyethyl)-1,3,4-oxadiazol-2-yl)-7-oxo-1,6-diazabicyclo[3.2.1]octan-6-yl hydrogen sulfate] | more active than Avibactam | more active than Avibactam
14 | CNCCCc1nnc([C@@H]2CC[C@@H]3CN2C(=O)N3OS(=O)(=O)O)o1 [Compound 734, (2S,5R)-2-(5-(3-(methylamino)propyl)-1,3,4-oxadiazol-2-yl)-7-oxo-1,6-diazabicyclo[3.2.1]octan-6-yl hydrogen sulfate] | more active than Avibactam | more active than Avibactam
15 | NCCCCc1nnc([C@@H]2CC[C@@H]3CN2C(=O)N3OS(=O)(=O)O)o1 [Compound 735, (2S,5R)-2-(5-(4-aminobutyl)-1,3,4-oxadiazol-2-yl)-7-oxo-1,6-diazabicyclo[3.2.1]octan-6-yl hydrogen sulfate] | more active than Avibactam | more active than Avibactam
16 | O=C1N2C[C@@H](CC[C@H]2c2nnc(CCNCCO)o2)N1OS(=O)(=O)O [Compound 736, (2S,5R)-2-(5-(2-((2-hydroxyethyl)amino)ethyl)-1,3,4-oxadiazol-2-yl)-7-oxo-1,6-diazabicyclo[3.2.1]octan-6-yl hydrogen sulfate] | more active than Avibactam | more active than Avibactam
